From ChEMBL document CHEMBL5321279 (J Med Chem, 2023) come the findings set out here.

For series [1], the system named is PC-3. The series is described as follows: Inhibition of mitochondrial respiration in human PC-3 cells at 100 uM incubated for 3 days. The following applies: time 3.0 day. It is filed as functional, cell-based.
Series [2] in a line: Apparent permeability of the compound from apical to basolateral side in human Caco-2 cells incubated for 2 hrs by LC-MS/MS analysis. The series is classed as ADME, cell-based. The following applies: Caco-2.
Series [3] is described as follows: AUC(0 to 24 hrs) in African green monkey assessed as prodrug conversion by measuring (2R,3R,4S,5R)-2-(4-aminopyrrolo[2,1-f][1,2,4]triazin-7-yl)-3,4-dihydroxy-5-(hydroxymethyl)tetrahydrofuran-2-carbonitrile at 86.5 mg/kg, po measured upto 24 hrs by LC-MS/MS analysis. It is filed as ADME, organism-based. Also noted: dose 86.5 mg/kg, time < 24 hrs, route po. Particulars: chlorocebus sabaeus, in vivo.

In series [4] the target is T1, Adenosine deaminase (Homo sapiens) (UniProt P00813).
T1 sequence (whole entry): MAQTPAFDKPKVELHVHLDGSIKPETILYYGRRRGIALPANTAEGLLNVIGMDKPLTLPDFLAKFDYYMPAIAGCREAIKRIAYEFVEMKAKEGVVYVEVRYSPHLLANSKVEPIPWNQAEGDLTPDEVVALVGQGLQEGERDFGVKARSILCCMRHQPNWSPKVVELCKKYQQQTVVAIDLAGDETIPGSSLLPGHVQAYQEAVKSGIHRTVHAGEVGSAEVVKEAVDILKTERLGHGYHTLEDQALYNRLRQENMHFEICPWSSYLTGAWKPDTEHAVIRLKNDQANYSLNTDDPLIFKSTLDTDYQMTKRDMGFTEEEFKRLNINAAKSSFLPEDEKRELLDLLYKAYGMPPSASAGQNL
The series is described as follows: Inhibition of human recombinant ADA1-mediated drug metabolism at 100 uM incubated for 58 mins by absorbance based analysis.

Series [5] relates to SARS-CoV-2. The experiment in a line: Antiviral activity against SARS-CoV-2 Omicron BA.1 infected in human A549-hACE2-TMPRSS2 cells assessed as fold reduction in viral replication pre-incubated with compound followed by viral infection measured after 72 hrs by ELISA assay relative to SARS-CoV-2 WA1. It is filed as functional, Severe acute respiratory syndrome coronavirus 2.

A short description of series [6]: Prodrug conversion in SARS-CoV-2 infected in African green monkey assessed as (2R,3R,4S,5R)-2-(4-aminopyrrolo[2,1-f][1,2,4]triazin-7-yl)-3,4-dihydroxy-5-(hydroxymethyl)tetrahydrofuran-2-carbonitrile mediated log10 reduction of genomic RNA at 60 mg/kg, po qd measured after 6 days by RT-qPCR analysis. The series is classed as ADME, organism-based, Severe acute respiratory syndrome coronavirus 2. The following applies: in vivo, time 6 day. In general terms: Real-time PCR tracks product formation cycle by cycle.

Series [7] in a line: Oral bioavailability in dog assessed as prodrug conversion by measuring (2R,3R,4S,5R)-2-(4-aminopyrrolo[2,1-f][1,2,4]triazin-7-yl)-3,4-dihydroxy-5-(hydroxymethyl)tetrahydrofuran-2-carbonitrile at […] administered in solid form measured upto 24 hrs by LC-MS/MS analysis. It is filed as ADME, organism-based, Canis lupus familiaris. The following applies: in vivo.
Series [8] can be described thus: AUC(0 to 24 hrs) in cynomolgus monkey assessed as prodrug conversion by measuring (2R,3R,4S,5R)-2-(4-aminopyrrolo[2,1-f][1,2,4]triazin-7-yl)-3,4-dihydroxy-5-(hydroxymethyl)tetrahydrofuran-2-carbonitrile at 11.7 mg/kg, po measured upto 24 hrs by LC-MS/MS analysis. It is filed as ADME, organism-based, Macaca fascicularis. Also noted: dose 11.7 mg/kg, time < 24 hrs, route po. The following applies: in vivo.

Series [9] relates to SARS-CoV-2. The series is described as follows: Antiviral activity against SARS-CoV-2 Omicron XBB infected in human A549-hACE2-TMPRSS2 cells assessed as fold reduction in viral replication pre-incubated with compound followed by viral infection measured after 72 hrs by ELISA assay relative to SARS-CoV-2 WA1. The series is classed as functional, Severe acute respiratory syndrome coronavirus 2. Background: An ELISA detects its analyte on a solid surface through an enzyme-linked reagent.

A short description of series [10]: Lipophilicity, logD of compound. The following applies: octanol/water. The series is classed as physicochemical.
For series [11], the system named is SARS-CoV-2. The experiment in a line: Antiviral activity against SARS-CoV-2 Omicron BA.2.75 infected in human A549-hACE2-TMPRSS2 cells assessed as fold reduction in viral replication pre-incubated with compound followed by viral infection measured after 72 hrs by ELISA assay relative to SARS-CoV-2 WA1. It is filed as functional, Severe acute respiratory syndrome coronavirus 2.

Series [12] deals with SARS-CoV-2. The series is described as follows: Antiviral activity against SARS-CoV-2 Omicron BA.4.6 infected in human A549-hACE2-TMPRSS2 cells assessed as fold reduction in viral replication pre-incubated with compound followed by viral infection measured after 72 hrs by ELISA assay relative to SARS-CoV-2 WA1. It is filed as functional, Severe acute respiratory syndrome coronavirus 2.

In the next series the test system is Huh-7. The series is described as follows: Cytotoxicity against human Huh-7 cells assessed as reduction in cell growth measured after 5 days by CellTiter-Glo assay. It is filed as toxicity, cell-based. The following applies: huh-7, 120 h, time 5 day. On the technique in general: ATP-based viability assays read luminescence as a measure of living cells.
A short description of series [13]: Thermodynamic aqueous solubility at pH 7 measured at 24 hrs by UPLC analysis. Particulars: aqueous solution, read-out: Therm_solubility. It is filed as physicochemical.
Series [14] in a line: Cmax in African green monkey infected with SARS-CoV-2 assessed as prodrug conversion by measuring (2R,3R,4S,5R)-2-(4-aminopyrrolo[2,1-f][1,2,4]triazin-7-yl)-3,4-dihydroxy-5-(hydroxymethyl)tetrahydrofuran-2-carbonitrile at 60 mg/kg, po qd measured after 6 days by LC-MS/MS analysis. The following applies: in vivo. It is filed as ADME, organism-based, Severe acute respiratory syndrome coronavirus 2. Also noted: dose 60 mg/kg, time 6 day, route po.

In series [15] the test system is SARS-CoV-2. The series is described as follows: Antiviral activity against SARS-CoV-2 Omicron BA.5 infected in human A549-hACE2-TMPRSS2 cells assessed as fold reduction in viral replication pre-incubated with compound followed by viral infection measured after 72 hrs by ELISA assay relative to SARS-CoV-2 WA1. It is filed as functional, Severe acute respiratory syndrome coronavirus 2.

The test system of series [16] is PC-3. The series is described as follows: Inhibition of mitochondrial protein synthesis in human PC-3 cells at 100 uM incubated for 5 days. The series is classed as functional, cell-based. Particulars: time 5.0 day.
In series [17] the test system is SARS-CoV-2. The series is described as follows: Antiviral activity against SARS-CoV-2 Delta (B.1.617.2) infected in human A549-hACE2-TMPRSS2 cells assessed as fold reduction in viral replication pre-incubated with compound followed by viral infection measured after 48 hrs by ELISA assay relative to SARS-CoV-2 WA1. The series is classed as functional, Severe acute respiratory syndrome coronavirus 2.

Series [18] is described as follows: Drug metabolism in human NHBE-T cells assessed as Nucleotide triphosphate metabolite formation at 10 uM measured after 48 hrs by LC-MS analysis. It is filed as ADME, cell-based.
Series [19] in a line: Cytotoxicity against human NHBE-T cells assessed as reduction in cell growth measured after 5 days by CellTiter-Glo assay. It is filed as toxicity, cell-based. The following applies: NHBE-T cells, time 5 day.
Series [20] deals with SARS-CoV-2. The experiment in a line: Antiviral activity against SARS-CoV-2 infected in African green monkey assessed as reduction in viral genomic RNA load in throat swabs at 60 to 120 mg/kg, po qd administered for 2 days starting from 8 hrs post infection by RT-qPCR analysis. Particulars: Severe acute respiratory syndrome coronavirus 2, dose lower 60.0 mg/kg, dose upper […], time 2.0 day. The series is classed as functional, organism-based.

Series [21] in a line: AUC(0 to 24 hrs) in African green monkey infected with SARS-CoV-2 assessed as prodrug conversion by measuring (2R,3R,4S,5R)-2-(4-aminopyrrolo[2,1-f][1,2,4]triazin-7-yl)-3,4-dihydroxy-5-(hydroxymethyl)tetrahydrofuran-2-carbonitrile at 60 mg/kg, po qd measured after 6 days by LC-MS/MS analysis. It is filed as ADME, organism-based, Severe acute respiratory syndrome coronavirus 2. Also noted: time 6 day, dose 60 mg/kg, route po. The following applies: in vivo.

For the next series, the system named is Hepatocyte. The experiment in a line: (§1) Cytotoxicity against human primary hepatocytes assessed as reduction in cell growth measured after 5 days by CellTiter-Glo assay. The series is classed as toxicity, cell-based. Particulars: hepatocytes, 120 h, time 5 day.
The nature of series [22]: as §1. It is filed as toxicity, cell-based, Hepatocyte. The following applies: primary hepatocytes, time 5 day.
Series [23] can be described thus: AUC(0 to 24 hrs) in African green monkey at 20 mg/kg, iv measured upto 24 hrs by LC-MS/MS analysis. It is filed as ADME, organism-based. Also noted: dose 20 mg/kg, time < 24 hrs, route iv. The following applies: chlorocebus sabaeus, in vivo.

Each structure is given as a SMILES string. Activity calls are given as the source filed them. No cut-off for these calls is given here.

The Papp A→B is the apparent permeability from the apical to the basolateral side of a cell layer. Usually AUC stands for concentration integrated over time. For orientation: logD means lipophilicity at a set pH, counting ionised and neutral species. What is called CC50 is the concentration giving 50% cytotoxicity. For orientation: Cmax means the maximum level reached in the sampled fluid or tissue. On to `CC(C)C(=O)OC[C@H]1O[C@@](C#N)(c2ccc3c(N)ncnn23)[C@H](O)[C@@H]1O` [OBELDESIVIR], for which the inhibition entry in the series with PC-3 [1] and with PC-3 [16] was “inactive” throughout. In addition, the Papp A→B at 2 h in series [2] was determined as 1 ×10⁻⁶ cm/s. The AUC in series [3] came out at 136 µM·h; in [8] it was 21.6 µM·h; in [21], 111 µM·h. For the same compound, the inhibition result in [4] is “Active”. Besides, the “fold change (FC)” value is 0.32 in the series on SARS-CoV-2 [5]; 1.1 in the series with SARS-CoV-2 [9]; 0.35 in the series with SARS-CoV-2 [11]; 0.62 with SARS-CoV-2 [12]; 0.83 in the series with SARS-CoV-2 [15]; 0.72 in the series with SARS-CoV-2 [17]. Further, the “log(activity)” value in series [6] is -1.41. The F in series [7] was 67%. Further, in series [10] (read-out: logD), the logD is under 0.9. In addition, the CC50 is over 44 µM in the series on Huh-7 and over 100 µM with Hepatocyte. In addition, the solubility thermodynamic at 24 h in series [13] is at least 1000 µg/mL. Moreover, the Cmax in [14] was 21 µM. The Drug metabolism result in series [18] was “Metabolite_Detected”. In addition, the CC50 at 120 h in series [19] was over 50 µM. Further, the result with SARS-CoV-2 [20] was Active.
Turning to `CCC(CC)COC(=O)[C@H](C)N[P@](=O)(OC[C@H]1O[C@@](C#N)(c2ccc3c(N)ncnn23)[C@H](O)[C@@H]1O)Oc1ccccc1`, the “fold change (FC)” value in the series with SARS-CoV-2 [5] is given as 0.45; with SARS-CoV-2 [9], 1.07; in the series on SARS-CoV-2 [11], 0.3; with SARS-CoV-2 [12], 0.64; in the series on SARS-CoV-2 [15] it was 0.66; in the series on SARS-CoV-2 [17], 0.59. Further, the half-maximal cytotoxic concentration (CC50) at 120 h was over 50 µM in series [19] and 2.5 µM in series [22].
With `N#C[C@@]1(c2ccc3c(N)ncnn23)O[C@H](CO)[C@@H](O)[C@H]1O` [GS-441524], the inhibition entry with PC-3 [1] and in the series on PC-3 [16] was “inactive” each time. Besides, the Papp A→B at 2 h in series [2] was 0.1 ×10⁻⁶ cm/s. Further, the inhibition entry in series [4] was “Active”. The compound further showed a logD in series [10] of under 0.3. This compound had an AUC in series [23] of 147 µM·h. In the series with Huh-7, the CC50 was over 89 µM. In addition, the solubility thermodynamic at 24 h in series [13] is at most 70 µg/mL.
